Measurements: PubChem BioAssay (NCI)
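Values below derive from 48-hour exposures of cells grown in 96-well plates, with endpoints linearly interpolated between the two concentrations bracketing the appropriate inhibition level. GI50 = concentration required for 50% inhibition of growth. Definition used: TGI = concentration required for complete inhibition of growth.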

Key:
Assay in all cases: NCI anticancer screen, dose series, 48 h
[1] = system: OVCAR-8 ovarian
[2] = system: K-562 leukemia
[3] = system: RXF 393 renal
[4] = system: CCRF-CEM leukemia
[5] = system: M14 melanoma
[6] = system: COLO 205 colon
[7] = system: MOLT-4 leukemia
[8] = system: OVCAR-5 ovarian
[9] = system: OVCAR-4 ovarian
[10] = system: DU-145 prostate

O=C1[C@@H](c2ccc(Cl)cc2)[C@H]2CC=C[C@H]2N1O
TGI [1]: > 100 µM
TGI [2]: > 100 µM
TGI [3]: > 100 µM
TGI [4]: > 100 µM
TGI [5]: > 100 µM
TGI [6]: > 100 µM
TGI [7]: > 100 µM

CC12CC3(C)CC(C)(C1)CC(N=[N+]=[N-])(C2)C3
TGI [1]: > 100 µM
TGI [2]: > 100 µM
TGI [8]: > 100 µM
TGI [3]: > 100 µM
TGI [4]: > 100 µM
TGI [9]: > 100 µM
TGI [5]: > 100 µM
TGI [6]: > 100 µM
TGI [7]: > 100 µM

CC(=O)N(CCN)CCN
TGI [1]: > 10 µM
TGI [2]: > 10 µM
TGI [3]: > 10 µM
TGI [4]: > 10 µM
TGI [9]: > 10 µM
TGI [5]: > 10 µM
TGI [6]: > 10 µM
TGI [7]: > 10 µM

O=c1nc(-c2ccccc2)c2c3c(cccn13)CCC2
TGI [1]: > 100 µM
TGI [2]: > 100 µM
TGI [8]: > 100 µM
TGI [3]: > 100 µM
TGI [4]: > 100 µM
TGI [9]: > 100 µM
TGI [5]: > 100 µM
TGI [7]: > 100 µM

Cc1cc(C)c2c(c1)CN1CN2Cc2cc(C)cc(C)c21
TGI [1]: 39.5 µM
TGI [2]: > 100 µM
TGI [8]: > 100 µM
TGI [3]: 22.4 µM
TGI [4]: 68.2 µM
TGI [9]: 50.8 µM
TGI [5]: 51.8 µM
TGI [6]: 42.6 µM
TGI [7]: 63.1 µM

O=[N+]([O-])c1ccc(N=Nc2c(O)[nH]c3ccc([N+](=O)[O-])cc23)cc1
TGI [1]: 35 µM
TGI [2]: > 100 µM
TGI [3]: 36.5 µM
TGI [4]: > 100 µM
TGI [9]: 38.6 µM
TGI [5]: 38 µM
TGI [6]: > 100 µM
TGI [7]: > 100 µM

CC1(C)C(=O)C(O)=CC2C1=CCC1C2(C)C(=O)CC2(C)C(C(C)(O)C(=O)CC(O)C(C)(C)O)C(O)CC12C (stereo not given)
TGI [1]: > 100 µM
TGI [2]: > 80.2 µM
TGI [8]: > 100 µM
TGI [3]: 5.54 µM
TGI [4]: 12 µM
TGI [9]: 11.8 µM
TGI [5]: 23.8 µM
TGI [6]: > 100 µM
TGI [7]: > 81.8 µM

Cc1cc([N+](=O)[O-])c(C)c2c1[nH]c1ccc(/C(CCC3CCCC3)=N\N)cc12
TGI [1]: 75 µM
TGI [2]: 55.2 µM
TGI [4]: 44.9 µM
TGI [9]: 53.9 µM
TGI [5]: 39.5 µM
TGI [6]: 33.1 µM
TGI [7]: 39 µM

Cc1cc(Cl)ccc1NC(=O)C(=O)Cc1nc2ccc(C(=O)c3ccccc3)cc2[nH]c1=O
TGI [1]: > 100 µM
TGI [3]: > 100 µM
TGI [4]: > 100 µM
TGI [9]: > 100 µM
TGI [5]: > 100 µM
TGI [6]: > 100 µM
TGI [7]: > 100 µM

CC[O-].CC[O-].O=C1C(=C([O-])c2ccccc2)C(=O)c2ccccc21.O=C1C(=C([O-])c2ccccc2)C(=O)c2ccccc21.[Ti+4]
GI50 [1]: 92.7 µM
TGI [1]: > 100 µM
GI50 [2]: > 100 µM
TGI [2]: > 100 µM
GI50 [8]: > 100 µM
TGI [8]: > 100 µM
GI50 [3]: > 100 µM
TGI [3]: > 100 µM
GI50 [4]: > 100 µM
TGI [4]: > 100 µM
GI50 [9]: > 100 µM
TGI [9]: > 100 µM
GI50 [5]: > 100 µM
TGI [5]: > 100 µM
GI50 [6]: 29.2 µM
TGI [6]: > 100 µM
GI50 [7]: > 100 µM
TGI [7]: > 100 µM

O=C(c1ccccc1)c1c(CC(O)c2cccnc2)n(C(=O)c2ccccc2)c2ccccc12 (stereo not given)
TGI [1]: > 100 µM
TGI [2]: 75.7 µM
TGI [8]: 37.6 µM
TGI [4]: 63.4 µM
TGI [9]: 42.4 µM
TGI [5]: 33.5 µM
TGI [6]: 40.6 µM
TGI [7]: 47.7 µM

CC(C)c1cccc(C(C)C)c1NC(=O)C(=O)C(C(=O)c1ccccc1-c1ccccc1)C1OC(=O)c2ccccc21 (stereo not given)
TGI [1]: 35 µM
TGI [2]: 68.3 µM
TGI [8]: 35.4 µM
TGI [3]: 27 µM
TGI [4]: 68.5 µM
TGI [9]: 45.9 µM
TGI [6]: 81.5 µM
TGI [7]: 74.1 µM

N=C(N)SCc1cn2ccccc2n1
TGI [1]: > 100 µM
TGI [2]: > 100 µM
TGI [8]: > 100 µM
TGI [4]: > 100 µM
TGI [9]: > 100 µM
TGI [5]: > 100 µM
TGI [6]: > 100 µM
TGI [7]: > 100 µM

Cc1c(C)c2cc3c(=O)ccoc3c(C)c2oc1=O
TGI [1]: > 100 µM
TGI [2]: > 100 µM
TGI [8]: > 100 µM
TGI [3]: > 100 µM
TGI [4]: > 100 µM
TGI [5]: > 100 µM
TGI [6]: > 100 µM
TGI [7]: 92.7 µM

COc1ccc([C@H]2CC(=O)N3CCCC3N2)cc1 (stereo not given in full)
TGI [1]: > 100 µM
TGI [2]: > 100 µM
TGI [8]: > 100 µM
TGI [3]: > 100 µM
TGI [4]: > 100 µM
TGI [9]: > 100 µM
TGI [5]: > 100 µM
TGI [6]: > 100 µM
TGI [7]: > 100 µM

Cc1cc(O)c2c(c1)C(O)(c1ccc3c(c1O)C(=O)c1c(O)cc(C)cc1C3(O)C1OC(CO)C(O)C(O)C1O)c1cccc(O)c1C2=O (stereo not given)
TGI [1]: 34 µM
TGI [2]: 18.9 µM
TGI [8]: 32.3 µM
TGI [3]: 24.7 µM
TGI [4]: 25.8 µM
TGI [9]: 26.4 µM
TGI [5]: 30 µM
TGI [7]: 32.6 µM

CCc1ccccc1NC(=O)C(=O)C(C(=O)c1ccc(OC)cc1)c1ccc(OC)cc1 (stereo not given)
TGI [1]: > 100 µM
TGI [2]: > 100 µM
TGI [8]: > 100 µM
TGI [4]: > 100 µM
TGI [9]: > 100 µM
TGI [5]: > 100 µM
TGI [6]: > 100 µM
TGI [7]: > 100 µM

O=C(CCc1nc(=S)[nH][nH]1)NC12CC3CC(CC(C3)C1)C2
TGI [1]: > 100 µM
TGI [2]: > 100 µM
TGI [8]: > 100 µM
TGI [3]: > 100 µM
TGI [4]: > 100 µM
TGI [9]: > 100 µM
TGI [5]: > 100 µM
TGI [6]: > 100 µM

COc1ccc(C2C(Cl)C(=O)N2n2cnc3ccccc3c2=O)cc1OC (stereo not given)
TGI [1]: > 100 µM
TGI [2]: > 100 µM
TGI [8]: > 100 µM
TGI [3]: > 100 µM
TGI [9]: > 100 µM
TGI [5]: > 100 µM
TGI [6]: > 100 µM
TGI [7]: > 100 µM

CC(C)c1ccc2nc3ccc(C(=O)NCCN(C)C)cn3c(=O)c2c1
TGI [1]: 39.9 µM
TGI [2]: 9.46 µM
TGI [8]: 33.2 µM
TGI [10]: > 100 µM
TGI [4]: 32.1 µM
TGI [9]: 56.5 µM
TGI [5]: 28.3 µM
TGI [6]: 33.8 µM
TGI [7]: 49.8 µM

COc1ccc(C(C2=C(C)C(=O)c3ccccc3C2=O)c2ccc(C(C)C)cc(=O)c2O)cc1 (stereo not given)
TGI [1]: 45.7 µM
TGI [2]: > 100 µM
TGI [8]: 7.53 µM
TGI [4]: > 100 µM
TGI [9]: > 100 µM
TGI [5]: 6.24 µM
TGI [6]: 20.7 µM
TGI [7]: > 100 µM

Cc1cc(N(CCNc2ccnc3cc(Cl)ccc23)Cc2ccc3c(c2)OCO3)nc(N2CCN(C)CC2)n1
GI50 [1]: 3.18 µM
TGI [1]: 11.2 µM
GI50 [2]: 1.16 µM
TGI [2]: 3.93 µM
GI50 [8]: 5.5 µM
TGI [8]: 18.3 µM
GI50 [3]: 1.43 µM
TGI [3]: 3.17 µM
GI50 [4]: 2.98 µM
TGI [4]: 9.31 µM
GI50 [9]: 2.83 µM
TGI [9]: 13.9 µM
GI50 [5]: 1.89 µM
TGI [5]: 3.55 µM
GI50 [6]: 1.86 µM
TGI [6]: 3.69 µM
GI50 [7]: 2.09 µM
TGI [7]: 8.36 µM

C[C@]12CC[C@@H]3c4ccc(O)c([N+](=O)[O-])c4CC[C@H]3[C@@H]1CC[C@@H]2NS(=O)(=O)c1ccc(C(F)(F)F)cc1
GI50 [1]: 2.46 µM
TGI [1]: 8.3 µM
GI50 [2]: 2.02 µM
TGI [2]: 5.84 µM
GI50 [8]: 1.81 µM
TGI [8]: 3.72 µM
GI50 [10]: 2.63 µM
TGI [10]: 7.11 µM
GI50 [4]: 2.34 µM
TGI [4]: 7.95 µM
GI50 [9]: 2.44 µM
TGI [9]: 8.88 µM
GI50 [5]: 1.92 µM
TGI [5]: 3.91 µM
GI50 [6]: 3.05 µM
TGI [6]: 9.4 µM
GI50 [7]: 2.08 µM
TGI [7]: 5.99 µM

CSc1nc2c(c(O)c(C)c(=O)n2C2OC(COC(C)=O)C(OC(C)=O)C(OC(C)=O)C2OC(C)=O)c(=O)n1C (stereo not given)
TGI [1]: > 100 µM
TGI [2]: > 100 µM
TGI [8]: > 100 µM
TGI [3]: > 100 µM
TGI [4]: > 100 µM
TGI [9]: > 100 µM
TGI [5]: > 100 µM
TGI [6]: > 100 µM

C/C(=N/N(C=O)C[n+]1ccccc1)C(CN(CC(C)C)CC(C)C)C(=O)Nc1ccc(C)cc1C (stereo not given)
TGI [1]: > 100 µM
TGI [2]: > 100 µM
TGI [8]: > 100 µM
TGI [3]: > 100 µM
TGI [4]: > 100 µM
TGI [9]: > 100 µM
TGI [5]: > 100 µM
TGI [6]: > 100 µM
TGI [7]: > 100 µM

COC(=O)C1=CCON(c2ccccc2)C1c1ccccc1 (stereo not given)
TGI [2]: > 100 µM
TGI [8]: > 100 µM
TGI [3]: > 100 µM
TGI [4]: > 100 µM
TGI [5]: > 100 µM
TGI [6]: > 100 µM
TGI [7]: > 100 µM

COc1cc2nncc(Sc3cnnc4ccccc34)c2cc1OC
TGI [2]: > 100 µM
TGI [8]: 64.6 µM
TGI [4]: 73.9 µM
TGI [9]: > 100 µM
TGI [5]: > 100 µM
TGI [6]: > 100 µM
TGI [7]: 54.5 µM

O=c1oc2ccccc2c(O)c1C=NC(=S)c1ccncc1
TGI [1]: > 100 µM
TGI [8]: > 100 µM
TGI [10]: > 100 µM
TGI [9]: > 100 µM
TGI [5]: > 100 µM
TGI [6]: > 100 µM
TGI [7]: > 100 µM

O=C(CC(C(=O)c1cccs1)c1ccc2c(c1)OCO2)c1ccc(Br)cc1 (stereo not given)
TGI [1]: > 100 µM
TGI [2]: > 100 µM
TGI [10]: > 100 µM
TGI [4]: > 100 µM
TGI [9]: > 100 µM
TGI [5]: > 100 µM
TGI [6]: > 100 µM
TGI [7]: > 100 µM

Clc1ccc([O][In]([O]c2ccc(Cl)cn2)[O]c2ccc(Cl)cn2)nc1
GI50 [1]: > 100 µM
TGI [1]: > 100 µM
GI50 [8]: > 100 µM
TGI [8]: > 100 µM
GI50 [3]: > 100 µM
TGI [3]: > 100 µM
GI50 [4]: > 100 µM
TGI [4]: > 100 µM
GI50 [9]: > 100 µM
TGI [9]: > 100 µM
GI50 [5]: > 100 µM
TGI [5]: > 100 µM
GI50 [6]: > 100 µM
TGI [6]: > 100 µM

Fc1cccc(Cl)c1C1SCc2nc3ccccc3n21 (stereo not given)
TGI [1]: > 100 µM
TGI [2]: > 100 µM
TGI [8]: > 100 µM
TGI [3]: > 100 µM
TGI [4]: > 100 µM
TGI [9]: > 100 µM
TGI [5]: > 100 µM
TGI [6]: 47.3 µM
TGI [7]: 52.1 µM
